Where a name gives a salt, the structure may show the parent alone. Read-outs that look alike come from different tables or passages of the source.
Tests used:
[1] = biological target: T1, human bradykinin 1 receptor (B1R) (Homo sapiens, UniProt P46663); assay: FLIPR Ca2+ assay, B1R antagonism, human; type: cell-based; conditions: 10 μM test substance, CHO K1 cells with human B1R gene (hB1R cells), Lys-Des-Arg9-bradykinin at EC80, % inhibition compared with the maximum achievable inhibition; for inhibition at 10 µM: read-out: B1R antagonism, human [10 μM] % inhibition
T1 construct: expressed in transfected cells
T1 sequence (P46663 1-353): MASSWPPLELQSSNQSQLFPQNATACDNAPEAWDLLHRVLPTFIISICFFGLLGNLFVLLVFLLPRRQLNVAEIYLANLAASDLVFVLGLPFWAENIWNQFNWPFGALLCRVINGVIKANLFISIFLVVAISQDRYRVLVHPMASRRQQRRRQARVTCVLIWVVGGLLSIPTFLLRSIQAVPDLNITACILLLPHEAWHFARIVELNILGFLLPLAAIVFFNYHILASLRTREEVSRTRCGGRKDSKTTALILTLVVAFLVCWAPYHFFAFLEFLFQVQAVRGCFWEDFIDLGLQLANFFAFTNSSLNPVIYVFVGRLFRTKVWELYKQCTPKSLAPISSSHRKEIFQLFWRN
Outline: (§1)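 Antagonism is given as % of maximum achievable suppression of agonist-evoked Ca2+ influx, measured by Fluo-4 peak fluorescence in FLIPR. Stable hB1R or rB1R CHO K1 lines received 10 μM compound for 10-20 min before EC80 Lys-Des-Arg9-bradykinin (human) or Des-Arg9-bradykinin (rat).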

[2] = biological target: T2, bradykinin 1 receptor (B1R) of the rat (Rattus norvegicus, UniProt P97583); assay: FLIPR Ca2+ assay, B1R antagonism, rat; type: cell-based
T2 construct: expressed in transfected cells
T2 sequence (P97583 1-337): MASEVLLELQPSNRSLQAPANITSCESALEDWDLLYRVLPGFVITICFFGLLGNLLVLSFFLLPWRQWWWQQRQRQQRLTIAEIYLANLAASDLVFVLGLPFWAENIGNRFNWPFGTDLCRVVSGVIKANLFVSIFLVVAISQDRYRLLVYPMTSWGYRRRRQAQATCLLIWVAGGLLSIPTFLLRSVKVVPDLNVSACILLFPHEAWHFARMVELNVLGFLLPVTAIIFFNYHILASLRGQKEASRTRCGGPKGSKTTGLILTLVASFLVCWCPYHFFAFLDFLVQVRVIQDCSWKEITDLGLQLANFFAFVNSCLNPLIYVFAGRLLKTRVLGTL
Outline: as §1

[3] = CHO-K1, 10 μM test substance, CHO K1 cells with rat B1R gene (rB1R cells), Des-Arg9-bradykinin at EC80, % inhibition compared with the maximum achievable inhibition, read-out: B1R antagonism, rat [10 μM] % inhibition

SMILES: COc1cc(C)c(S(=O)(=O)N2CCCCC2CCCC(=O)N2CCC(OCCN3CCCC3)(c3ccncc3)CC2)c(C)c1 (stereo not shown) [Example 90, 4-[1-[(4-methoxy-2,6-dimethyl-phenyl)sulfonyl]-piperidin-2-yl]-1-[4-pyridin-4-yl-4-(2-pyrrolidin-1-yl-ethoxy)-piperidin-1-yl]-butan-1-one]
- inhibition at 10 µM [1]: 100%
- inhibition at 10 µM [2, 3]: 102%

SMILES: COc1cc(C)c(S(=O)(=O)N(C)CCOCC(=O)N2CCC(OCCN3CCCC3)(c3cccnc3)CC2)c(C)c1 [Example 21, 4-methoxy-N,2,6-trimethyl-N-(2-(2-oxo-2-(4-(pyridin-3-yl)-4-(2-(pyrrolidin-1-yl)ethoxy)piperidin-1-yl)ethoxy)ethyl)benzenesulfonamide]
- inhibition at 10 µM [1]: 98%
- inhibition at 10 µM [2, 3]: 100%

SMILES: COc1cc(C)c(S(=O)(=O)N2CCCC[C@H]2COCC(=O)N2CCC(OCCN3CCCC3)(c3cccnc3)CC2)c(C)c1 [Example 46, (S)-2-((1-(4-methoxy-2,6-dimethylphenylsulfonyl)piperidin-2-yl)methoxy)-1-(4-(pyridin-3-yl)-4-(2-(pyrrolidin-1-yl)ethoxy)piperidin-1-yl)ethanone hydrochloride]
- inhibition at 10 µM [1]: 100%
- inhibition at 10 µM [2, 3]: 102%

SMILES: COc1cc(C)c(S(=O)(=O)N(C)CCOCC(=O)N2CCC(OCCN3CCN(C)CC3)(c3cccnc3)CC2)c(C)c1 [Example 29, 4-methoxy-N,2,6-trimethyl-N-(2-(2-(4-(2-(4-methylpiperazin-1-yl)ethoxy)-4-(pyridin-3-yl)piperidin-1-yl)-2-oxoethoxy)ethyl)benzenesulfonamide]
- inhibition at 10 µM [1]: 99%
- inhibition at 10 µM [2, 3]: 101%

SMILES: O=C(COCC1CCc2ccccc2N1S(=O)(=O)c1ccc(Cl)c(Cl)c1)N1CCC(OCCCN2CCCCC2)(c2cccnc2)CC1 (stereo not shown) [Example 19, 2-((1-(3,4-dichlorophenylsulfonyl)-1,2,3,4-tetrahydroquinolin-2-yl)methoxy)-1-(4-(3-(piperidin-1-yl)propoxy)-4-(pyridin-3-yl)piperidin-1-yl)ethanone]
- inhibition at 10 µM [1]: 103%
- inhibition at 10 µM [2, 3]: 94%

SMILES: COc1cc(C)c(S(=O)(=O)N(C)CCOCC(=O)N2CCC(OCCN3CCCC3)(c3cccnc3)CC2)c(C)c1C [Example 113, 4-methoxy-N,2,3,6-tetramethyl-N-[2-[2-oxo-2-[4-pyridin-3-yl-4-(2-pyrrolidin-1-yl-ethoxy)-piperidin-1-yl]-ethoxy]-ethyl]-benzenesulfonic acid amide]
- inhibition at 10 µM [1]: 100%
- inhibition at 10 µM [2, 3]: 103%

SMILES: COc1cc(C)c(S(=O)(=O)N(CCOCC(=O)N2CCC(OCCN3CCCC3)(c3cccc(F)c3)CC2)c2ccccc2)c(C)c1 [Example 99, N-[2-[2-[4-(3-fluorophenyl)-4-(2-pyrrolidin-1-yl-ethoxy)-piperidin-1-yl]-2-oxo-ethoxy]-ethyl]-4-methoxy-2,6-dimethyl-N-phenyl-benzenesulfonic acid amide]
- inhibition at 10 µM [1]: 99%
- inhibition at 10 µM [2, 3]: 97%

SMILES: O=C(COCC1CCCCN1S(=O)(=O)c1ccccc1C(F)(F)F)N1CCC(OCCN2CCCC2)(c2cccc(F)c2)CC1 (stereo not shown) [Example 118, 1-[4-(3-fluorophenyl)-4-(2-pyrrolidin-1-yl-ethoxy)-piperidin-1-yl]-2-[[1-[[2-(trifluoromethyl)-phenyl]sulfonyl]-piperidin-2-yl]-methoxy]-ethanone]
- inhibition at 10 µM [1]: 100%
- inhibition at 10 µM [2, 3]: 97%

SMILES: COc1cc(C)c(S(=O)(=O)N(CCOCC(=O)N2CCC(OCC[N+]3(C)CCCC3)(c3cccnc3)CC2)C2CC2)c(C)c1 [Example 58, N-cyclopropyl-4-methoxy-2,6-dimethyl-N-[2-[2-[4-[2-(1-methyl-pyrrolidin-1-ium-1-yl)-ethoxy]-4-pyridin-3-yl-piperidin-1-yl]-2-oxo-ethoxy]-ethyl]-benzenesulfonic acid amide iodide]
- inhibition at 10 µM [1]: 100%
- inhibition at 10 µM [2, 3]: 104%

SMILES: O=C(CC(NS(=O)(=O)c1ccc2ccccc2c1)c1ccccc1)N1CCC(OCCCN2CCCC2)(c2cccnc2)CC1 (stereo not shown) [Example 44, N-(3-oxo-1-phenyl-3-(4-(pyridin-3-yl)-4-(3-(pyrrolidin-1-yl)propoxy)piperidin-1-yl)propyl)naphthalene-2-sulfonamide]
- inhibition at 10 µM [1]: 95%
- inhibition at 10 µM [2, 3]: 102%

SMILES: O=C(COCCN(C1CCc2ccccc21)S(=O)(=O)c1ccc(Cl)cc1Cl)N1CCC(OCCN2CCCC2)(c2cccnc2)CC1 (stereo not shown) [Example 7, 2,4-dichloro-N-(2,3-dihydro-1H-inden-1-yl)-N-(2-(2-oxo-2-(4-(pyridin-3-yl)-4-(2-(pyrrolidin-1-yl)ethoxy)piperidin-1-yl)ethoxy)ethyl)benzenesulfonamide]
- inhibition at 10 µM [1]: 99%
- inhibition at 10 µM [2, 3]: 94%

SMILES: COc1cc(C)c(S(=O)(=O)N2CCCCC2CCCC(=O)N2CCC(OCCN3CCCC3)(c3cccnc3)CC2)c(C)c1 (stereo not shown) [Example 2, 4-(1-(4-methoxy-2,6-dimethylphenylsulfonyl)piperidin-2-yl)-1-(4-(pyridin-3-yl)-4-(2-(pyrrolidin-1-yl)ethoxy)piperidin-1-yl)butan-1-one]
- B1R antagonism, human [10 μM] % inhibition ([1]; 10 µM): 97%
- inhibition at 10 µM ([2]; CHO-K1, read-out: B1R antagonism, rat [10 μM] % inhibition): 99%

SMILES: COc1cc(C)c(S(=O)(=O)N2CCCC[C@H]2COCC(=O)N2CCC(COCCN3CCCC3)(c3cccnc3)CC2)c(C)c1 [Example 49, (S)-2-((1-(4-methoxy-2,6-dimethylphenylsulfonyl)piperidin-2-yl)methoxy)-1-(4-(pyridin-3-yl)-4-((2-(pyrrolidin-1-yl)ethoxy)methyl)piperidin-1-yl)ethanone]
- inhibition at 10 µM [1]: 97%
- inhibition at 10 µM [2, 3]: 104%

SMILES: O=C(CC1CCCCN1S(=O)(=O)c1cccc(C(F)(F)F)c1)N1CCC(OCCCN2CCCCC2)(c2cccnc2)CC1 (stereo not shown) [Example 23, 1-(4-(3-(piperidin-1-yl)propoxy)-4-(pyridin-3-yl)piperidin-1-yl)-2-(1-(3-(trifluoromethyl)phenylsulfonyl)piperidin-2-yl)ethanone]
- inhibition at 10 µM [1]: 57%
- inhibition at 10 µM [2, 3]: 46%

SMILES: COc1cc(C)c(S(=O)(=O)N2c3ccccc3CCC2COCC(=O)N2CCC(OCCN3CCCC3)(c3cccc(F)c3)CC2)c(C)c1 (stereo not shown) [Example 102, 1-[4-(3-fluorophenyl)-4-(2-pyrrolidin-1-yl-ethoxy)-piperidin-1-yl]-2-[[1-[(4-methoxy-2,6-dimethyl-phenyl)sulfonyl]-1,2,3,4-tetrahydro-quinolin-2-yl]-methoxy]-ethanone]
- inhibition at 10 µM [1]: 99%
- inhibition at 10 µM [2, 3]: 98%

SMILES: O=C(COCC1CCc2ccccc2N1S(=O)(=O)c1ccc(Cl)c(Cl)c1)N1CCC(OCCN2CCCCC2)(c2cccnc2)CC1 (stereo not shown) [Example 16, 2-((1-(3,4-dichlorophenylsulfonyl)-1,2,3,4-tetrahydroquinolin-2-yl)methoxy)-1-(4-(2-(piperidin-1-yl)ethoxy)-4-(pyridin-3-yl)piperidin-1-yl)ethanone]
- inhibition at 10 µM [1]: 103%
- inhibition at 10 µM [2, 3]: 87%

SMILES: COc1cc(C)c(S(=O)(=O)N(CCOCC(=O)N2CCC(OCCN3CCCC3)(c3cccnc3)CC2)c2ccccc2)c(C)c1 [Example 98, 4-methoxy-2,6-dimethyl-N-[2-[2-oxo-2-[4-pyridin-3-yl-4-(2-pyrrolidin-1-yl-ethoxy)-piperidin-1-yl]-ethoxy]-ethyl]-N-phenyl-benzenesulfonic acid amide]
- inhibition at 10 µM [1]: 100%
- inhibition at 10 µM [2, 3]: 103%

SMILES: COc1cc(C)c(S(=O)(=O)N(C)CCOCC(=O)N2CCC(OCCN3CCCCC3)(c3cccnc3)CC2)c(C)c1 [Example 15, 4-methoxy-N,2,6-trimethyl-N-(2-(2-oxo-2-(4-(2-(piperidin-1-yl)ethoxy)-4-(pyridin-3-yl)piperidin-1-yl)ethoxy)ethyl)-benzenesulfonamide]
- inhibition at 10 µM [1]: 104%
- inhibition at 10 µM [2, 3]: 102%

SMILES: COc1cc(C)c(S(=O)(=O)N2CCCC[C@H]2COCC(=O)N2CCC(OCCn3cncn3)(c3cccnc3)CC2)c(C)c1 [Example 59, 2-[[(2S)-1-[(4-methoxy-2,6-dimethyl-phenyl)sulfonyl]-piperidin-2-yl]-methoxy]-1-[4-pyridin-3-yl-4-[2-(1H-[1,2,4]triazol-1-yl)-ethoxy]-piperidin-1-yl]-ethanone]
- inhibition at 10 µM [1]: 100%
- inhibition at 10 µM [2, 3]: 102%

SMILES: O=C(CC1CCCCN1S(=O)(=O)c1cccc(C(F)(F)F)c1)N1CCC(OCCCN2CCCC2)(c2cccnc2)CC1 (stereo not shown) [Example 42, 1-(4-(pyridin-3-yl)-4-(3-(pyrrolidin-1-yl)propoxy)piperidin-1-yl)-2-(1-(3-(trifluoromethyl)phenylsulfonyl)piperidin-2-yl)ethanone]
- inhibition at 10 µM [1]: 52%
- inhibition at 10 µM [2, 3]: 48%
